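Following 48 hours of exposure in 96-well plates, responses at five concentrations were used to interpolate endpoints linearly. GI50 marks 50% less growth. At the TGI there is no net growth.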

Among the test systems are BT-549 breast; CAKI-1 renal; NCI-H460 lung; NCI-H522 lung; OVCAR-3 ovarian; SF-295 CNS; SK-MEL-2 melanoma; SK-MEL-5 melanoma; UACC-257 melanoma; UO-31 renal.
Holding throughout (test): NCI tumour cell line growth inhibition, 48 h

Regarding `Cc1cc(N(CCCl)CCCl)ccc1C=Nc1ccc2ccccc2c1`, the GI50 in the assay with BT-549 breast was 19.8 µM; in the assay with CAKI-1 renal, 1.51 µM; in the assay on NCI-H460 lung, 0.485 µM; in the assay on NCI-H522 lung it was 20.1 µM; in the assay on OVCAR-3 ovarian, 14.8 µM; in the assay on SF-295 CNS, 2.08 µM. Besides, the GI50 with SK-MEL-2 melanoma was 40 µM; with SK-MEL-5 melanoma it was 6.8 µM; in the assay with UACC-257 melanoma it was 3.17 µM; in the assay on UO-31 renal, 8.71 µM. The TGI with BT-549 breast was over 100 µM; in the assay on CAKI-1 renal, over 100 µM; with NCI-H460 lung, over 100 µM; in the assay on NCI-H522 lung it was over 66.5 µM; with OVCAR-3 ovarian, over 77 µM; in the assay with SF-295 CNS it was over 55.8 µM. The TGI was 98 µM in the assay with SK-MEL-2 melanoma, 27.6 µM in the assay on SK-MEL-5 melanoma, over 39.6 µM in the assay with UACC-257 melanoma and over 100 µM in the assay on UO-31 renal.

With `CCCCCCCCCCCCCCCCC(=O)O.CCCCCCCCCCCCCCCCCC(=O)O.CCCCCCCCCCCCCCCCCC(=O)O.CCCCCCCCCCCCCCCCCC(=O)O.CCCCCCCCCCCCCCCCCC(=O)O.CO[CH-]OC12COC1CC(O)C1(C)C(O)C(OC(C)O)C3=C(C)C(OC(=O)C(O)C([NH-])c4ccccc4)CC(O)(C(OC(=O)c4ccccc4)C21)C3(C)C.[Cu+].[Zn].[Zn].[Zn].[Zn].[Zn]` (stereo not drawn), the GI50 is 0.00947 µM in the assay with BT-549 breast; 0.0513 µM in the assay with CAKI-1 renal; 0.00441 µM in the assay with NCI-H460 lung; 0.0103 µM in the assay on NCI-H522 lung; 0.00747 µM in the assay on OVCAR-3 ovarian; 0.0102 µM in the assay with SF-295 CNS. Besides, the GI50 in the assay with SK-MEL-2 melanoma was under 0.0118 µM; in the assay on UACC-257 melanoma it was 3.91 µM; in the assay on UO-31 renal it was 0.487 µM. For the same molecule, the TGI was 3.95 µM in the assay with BT-549 breast; over 25 µM in the assay on CAKI-1 renal; 3.66 µM in the assay on NCI-H460 lung; 6.07 µM in the assay on NCI-H522 lung; 0.388 µM in the assay with OVCAR-3 ovarian; 2.9 µM in the assay on SF-295 CNS. In addition, the TGI in the assay on SK-MEL-2 melanoma is 11.2 µM; with SK-MEL-5 melanoma, 3.57 µM; in the assay with UACC-257 melanoma, over 25 µM; in the assay on UO-31 renal, over 14.5 µM.

For `CC1(C)[C@@H](OC(=O)CCC(=O)O)CC[C@]2(C)[C@H]3C(=O)C=C4[C@@H]5C[C@@](C)(C(=O)O)CC[C@]5(C)CC[C@@]4(C)[C@]3(C)CC[C@@H]12`, the GI50 is 51.1 µM in the assay on BT-549 breast; 61.6 µM with CAKI-1 renal; 52.6 µM in the assay on NCI-H460 lung; 51.1 µM in the assay on NCI-H522 lung; 50.4 µM in the assay on OVCAR-3 ovarian; 48.7 µM with SF-295 CNS. The GI50 is 52.1 µM with SK-MEL-2 melanoma, 56 µM in the assay with SK-MEL-5 melanoma, 66.2 µM in the assay on UACC-257 melanoma and 60.1 µM in the assay on UO-31 renal. Further, the TGI in the assay with BT-549 breast turned out to be 83.3 µM; in the assay with CAKI-1 renal, 157 µM; in the assay on NCI-H460 lung it was 76 µM; in the assay on NCI-H522 lung, 80.7 µM; with OVCAR-3 ovarian it was 62.9 µM; with SF-295 CNS, 65 µM. Also, the TGI amounted to 67.9 µM with SK-MEL-2 melanoma, 86.8 µM in the assay with SK-MEL-5 melanoma, 91.4 µM in the assay with UACC-257 melanoma and 81.6 µM in the assay on UO-31 renal.

As to `O=c1ssc(Cl)c1Cl`, the TGI with BT-549 breast is over 10 µM; in the assay on CAKI-1 renal, over 10 µM; in the assay on NCI-H460 lung, over 10 µM; in the assay on NCI-H522 lung, over 6.78 µM; with OVCAR-3 ovarian, over 10 µM; in the assay with SF-295 CNS, over 10 µM. For the same molecule, the TGI with SK-MEL-2 melanoma is over 10 µM; in the assay with SK-MEL-5 melanoma, over 10 µM; in the assay on UACC-257 melanoma, over 10 µM; with UO-31 renal, over 6.86 µM.

`O=C1c2ccccc2-c2c1c1ccccc1c(=O)n2CCCNCCCCNCCCN1C(=O)c2ccccc2C2C(=O)c3ccccc3C21` (stereo not drawn): the GI50 was 0.854 µM in the assay on BT-549 breast; 0.447 µM in the assay on CAKI-1 renal; 0.0426 µM in the assay with NCI-H460 lung; 9.38 µM in the assay with NCI-H522 lung; 0.212 µM in the assay with OVCAR-3 ovarian; 0.0647 µM in the assay on SF-295 CNS. The GI50 with SK-MEL-2 melanoma is 1.04 µM; in the assay on SK-MEL-5 melanoma it was 0.939 µM; in the assay with UACC-257 melanoma it was 3.86 µM; in the assay on UO-31 renal, 0.691 µM. Further, the TGI in the assay with BT-549 breast came to 2.04 µM; in the assay on CAKI-1 renal, 1.13 µM; in the assay with NCI-H460 lung, 2.39 µM; in the assay with NCI-H522 lung it was 50 µM; with OVCAR-3 ovarian, 0.87 µM; in the assay on SF-295 CNS it was 0.872 µM. Besides, the TGI was 3.82 µM in the assay with SK-MEL-2 melanoma, 3.93 µM in the assay on SK-MEL-5 melanoma, 11.7 µM with UACC-257 melanoma and 1.85 µM in the assay with UO-31 renal.

In the case of `Clc1ccc(OCc2nnc3n2N=C(c2ccc(Cl)cc2Cl)CS3)cc1`, the GI50 in the assay with BT-549 breast was 22.8 µM; in the assay on CAKI-1 renal, 25.9 µM; with NCI-H460 lung, 17.2 µM; in the assay with NCI-H522 lung, 19.2 µM; in the assay on OVCAR-3 ovarian it was 17.8 µM; in the assay with SF-295 CNS, 13.7 µM. In addition, the GI50 with SK-MEL-2 melanoma is 22.1 µM; in the assay on SK-MEL-5 melanoma, 16.4 µM; in the assay on UACC-257 melanoma, 25 µM; with UO-31 renal, 14.8 µM. Also, the TGI in the assay on BT-549 breast was 46.2 µM; with CAKI-1 renal, 79.7 µM; with NCI-H460 lung, 51 µM; in the assay with NCI-H522 lung, 38.7 µM; in the assay with OVCAR-3 ovarian, 50.7 µM; in the assay with SF-295 CNS it was 44.2 µM. Besides, the TGI with SK-MEL-2 melanoma was found to be 45.8 µM; with SK-MEL-5 melanoma, 31.9 µM; in the assay with UACC-257 melanoma it was 50 µM; in the assay with UO-31 renal, 34.5 µM.

For `COc1ccc(-n2ccnc2-c2cc(OC)c(OC)c(OC)c2)cc1`, the GI50 with BT-549 breast was 5.03 µM; in the assay on CAKI-1 renal it was 1.28 µM; in the assay with NCI-H460 lung, 2.37 µM; with NCI-H522 lung it was 2.92 µM; with OVCAR-3 ovarian, 1.58 µM; in the assay on SF-295 CNS it was 1.99 µM. Besides, the GI50 in the assay with SK-MEL-2 melanoma is 7.27 µM; in the assay on SK-MEL-5 melanoma, 1.91 µM; in the assay on UACC-257 melanoma it was 6.64 µM; in the assay with UO-31 renal it was 4.91 µM. The TGI was over 100 µM with BT-549 breast; 7.69 µM in the assay with CAKI-1 renal; over 100 µM with NCI-H460 lung; 8.12 µM in the assay with NCI-H522 lung; 5.03 µM with OVCAR-3 ovarian; 8.35 µM in the assay with SF-295 CNS. In addition, the TGI is over 100 µM with SK-MEL-2 melanoma, 11.1 µM with SK-MEL-5 melanoma, over 100 µM with UACC-257 melanoma and 71.2 µM in the assay with UO-31 renal.

With `Cc1ccc(Cl)c(Nc2ccccc2C(=O)O)c1Cl`, the GI50 in the assay on BT-549 breast was 21.7 µM; with CAKI-1 renal, 34.6 µM; in the assay with NCI-H460 lung it was 25.9 µM; in the assay with NCI-H522 lung, 28.3 µM; in the assay on OVCAR-3 ovarian, 20.3 µM; in the assay on SF-295 CNS it was 25.3 µM. The GI50 was 26.3 µM in the assay on SK-MEL-2 melanoma, 18.2 µM in the assay on SK-MEL-5 melanoma, 27.4 µM in the assay with UACC-257 melanoma and 19.3 µM with UO-31 renal. Also, the TGI with BT-549 breast is 60.1 µM; in the assay on CAKI-1 renal, over 100 µM; in the assay on NCI-H460 lung it was 69.4 µM; with NCI-H522 lung it was 87.2 µM; in the assay with OVCAR-3 ovarian it was 37.9 µM; in the assay with SF-295 CNS it was 76 µM. Also, the TGI was 76 µM in the assay with SK-MEL-2 melanoma, 33.5 µM in the assay on SK-MEL-5 melanoma, over 100 µM with UACC-257 melanoma and 45.5 µM in the assay on UO-31 renal.

Turning to `COc1cc(-c2c(C#N)c(N)nc(N3CCOCC3)c2C#N)cc(OC)c1OC`, the GI50 in the assay on BT-549 breast was over 100 µM; in the assay on CAKI-1 renal, over 100 µM; in the assay on NCI-H460 lung it was over 100 µM; in the assay on NCI-H522 lung it was over 100 µM; in the assay with OVCAR-3 ovarian, 68.8 µM; with SF-295 CNS, over 100 µM. In addition, the GI50 was over 100 µM in the assay with SK-MEL-2 melanoma, over 100 µM with SK-MEL-5 melanoma, over 100 µM in the assay on UACC-257 melanoma and 96.1 µM in the assay on UO-31 renal. Besides, the TGI in the assay on BT-549 breast, in the assay on CAKI-1 renal, with NCI-H460 lung, in the assay with NCI-H522 lung, with OVCAR-3 ovarian and with SF-295 CNS was over 100 µM in each case. Further, the TGI in the assay with SK-MEL-2 melanoma, in the assay on SK-MEL-5 melanoma, with UACC-257 melanoma and with UO-31 renal was over 100 µM each time.

As to `O=C1c2cccc(NCCN=Cc3ccccc3O)c2C(=O)c2c(NCCN=Cc3ccccc3O)cccc21`, the GI50 in the assay with BT-549 breast was 2.77 µM; in the assay with CAKI-1 renal, 0.953 µM; in the assay with NCI-H460 lung it was 0.399 µM; with NCI-H522 lung, 0.278 µM; in the assay with OVCAR-3 ovarian, 0.514 µM; in the assay with SF-295 CNS it was 0.409 µM. Besides, the GI50 in the assay with SK-MEL-2 melanoma was 1.2 µM; with SK-MEL-5 melanoma, 1.55 µM; with UACC-257 melanoma it was 1.44 µM; in the assay with UO-31 renal it was 0.596 µM. The TGI in the assay with BT-549 breast was 9.37 µM; in the assay with CAKI-1 renal, 4.82 µM; with NCI-H460 lung, 1.52 µM; in the assay on NCI-H522 lung it was 1.38 µM; in the assay with OVCAR-3 ovarian it was 2.09 µM; in the assay with SF-295 CNS, 1.88 µM. Besides, the TGI is 3.67 µM in the assay with SK-MEL-2 melanoma, 4.03 µM in the assay on SK-MEL-5 melanoma, 4.3 µM in the assay on UACC-257 melanoma and 3.06 µM in the assay with UO-31 renal.

On to `COc1cc(/C=C/C(=O)N2CCN(C(=O)c3cc(OC)c(OC)c(OC)c3)CC2)ccc1OCCCOc1cc2c(cc1OC)C(=O)N1CCC[C@H]1C=N2`, for which the GI50 in the assay on BT-549 breast is 0.154 µM; with CAKI-1 renal, 1.54 µM; in the assay on NCI-H460 lung, 0.333 µM; in the assay with NCI-H522 lung it was 0.213 µM; in the assay on OVCAR-3 ovarian it was 0.219 µM; with SK-MEL-2 melanoma it was 0.26 µM. The values for the GI50 with SK-MEL-5 melanoma, with UACC-257 melanoma and in the assay with UO-31 renal were 0.193 µM, 0.313 µM and 1.98 µM, respectively. For the same molecule, the TGI in the assay with BT-549 breast was found to be 0.434 µM; in the assay with CAKI-1 renal, 6.08 µM; in the assay on NCI-H460 lung it was 10.3 µM; with NCI-H522 lung, 3.25 µM; with OVCAR-3 ovarian it was 0.504 µM; in the assay on SF-295 CNS, 0.875 µM. The TGI was 0.703 µM in the assay with SK-MEL-2 melanoma, 0.415 µM with SK-MEL-5 melanoma, 2.04 µM with UACC-257 melanoma and 6.56 µM in the assay on UO-31 renal.

The record behind these values is PubChem BioAssay (NCI).
